Experimental data reported in patent US9233108B2 (ALMIRALL, S.A., priority 2011, dated 2016).

How the values were obtained:
[1] = target: human adrenergic beta2 receptors (Homo sapiens (Human), UniProt P07550); assay: Human adrenergic β2 receptor binding assay; details: Sf9 cell membranes, 3H-CGP12177 radioligand
Experimental: Test 1: Human Adrenergic β1 and β2 Receptor Binding Assays
The study of binding to human adrenergic beta1 and beta2 receptors was performed using commercial membranes prepared from Sf9 cells where they are overexpressed (Perkin Elmer). The membrane suspensions (16 μg/well for beta1 and 5 μg/well for beta2) in assay buffer (75 mM Tris/HCl with 12.5 mM MgCl2 and 2 mM EDTA pH=7.4) were incubated with 0.14 or 0.6 nM of 3H-CGP12177 (Amersham) for beta 1 and beta 2 receptors respectively in a final volume of 250 μl, in GFC Multiscreen 96 well plates (Millipore) previously treated with assay buffer containing 0.3% PEI (Sigma). Non specific binding was measured in the presence of 1 μM propanolol. Incubation was maintained for 60 minutes at room temperature and with gentle shaking. The binding reactions were terminated by filtration and washing with 2.5 volumes of Tris/HCl 50 mM pH=7.4. The affinity of each test compound to the receptor was determined by using ten different concentrations ran in duplicate. IC50s were calculated using Activity Base software from IDBS and the four parameters-log equation.

[2] = target: human muscarinic M3 receptors (Homo sapiens (Human), UniProt P20309); assay: Human muscarinic M3 receptor binding assay; details: CHO-K1 cell membranes, [3H]-NMS radioligand
Sequence of human muscarinic M3 receptors (P20309 whole entry): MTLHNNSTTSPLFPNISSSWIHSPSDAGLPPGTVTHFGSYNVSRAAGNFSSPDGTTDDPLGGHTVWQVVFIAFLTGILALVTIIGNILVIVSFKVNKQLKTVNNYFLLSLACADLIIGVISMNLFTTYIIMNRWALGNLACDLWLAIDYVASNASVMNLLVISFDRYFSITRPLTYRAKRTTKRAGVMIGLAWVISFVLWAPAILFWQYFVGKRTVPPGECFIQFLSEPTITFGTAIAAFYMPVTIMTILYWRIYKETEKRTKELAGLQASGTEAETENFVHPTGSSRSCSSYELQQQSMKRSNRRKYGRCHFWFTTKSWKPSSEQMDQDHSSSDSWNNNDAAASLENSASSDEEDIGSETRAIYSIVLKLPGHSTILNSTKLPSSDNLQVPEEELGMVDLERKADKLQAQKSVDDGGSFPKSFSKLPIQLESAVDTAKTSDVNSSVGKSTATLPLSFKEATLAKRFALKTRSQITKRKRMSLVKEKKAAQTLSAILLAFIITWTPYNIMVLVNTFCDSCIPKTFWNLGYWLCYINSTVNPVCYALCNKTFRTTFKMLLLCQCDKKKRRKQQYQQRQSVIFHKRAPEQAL
Experimental: Test 2: Human Muscarinic M1, M2, M3, M4 and M5 receptors binding assays
The study of binding to human muscarinic M1, M2, M3, M4 and M5 receptors was performed using commercial membranes (Perkin Elmer) prepared from CHO-K1 cells. Radioligand binding experiments were conducted in 96 polypropylene well plates in a total volume of 200 μl. All reagents were dissolved in assay binding buffer (PBS with calcium and magnesium, SIGMA), except compounds that were dissolved in DMSO 100%. Non-specific binding (NSB) was measured in the presence of 1 μM atropine. [3H]-NMS was used as the radioligand at a concentration of 1 nM for M2, M3 and M5 and 0.3 nM for M1 and M4. [3H]-NMS and antagonists were incubated with membranes that express human muscarinic receptors M1, M2, M3, M4 and M5 at concentrations of 8.1, 10, 4.9, 4.5 and 4.9 μg/well, respectively.
After an incubation period of two hours with gentle shaking, 150 μl of the reaction mix were transferred to 96 GF/C filter plates (Millipore), previously treated with wash buffer (Tris 50 mM; NaCl 100 mM; pH: 7.4), containing 0.05% PEI (Sigma) during one hour. Bound and free [3H]-NMS were separated by rapid vacuum filtration in a manifold from Millipore and washed four times with ice cold wash buffer. After drying 30 min, 30 μl of OPTIPHASE Supermix were added to each well and radioactivity quantified using a Microbeta microplate scintillation counter.
The affinity of each test compound to the receptors was determined by using ten different concentrations ran in duplicate. IC50s were calculated using Activity Base software from IDBS and the four parameters-log equation.

| Molecule | IC50 [1] | IC50 [2] |
| --- | --- | --- |
| COc1cc(-c2noc(CCCN(C)[C@H]3CC[C@H](OC(=O)C(O)(c4cccs4)c4cccs4)CC3)n2)c(Cl)cc1CNC[C@H](O)c1ccc(O)c2[nH]c(=O)ccc12 (relative stereo) [Example 9, trans-4-[(3-{3-[2-chloro-4-({[(2R)-2-hydroxy-2-(8-hydroxy-2-oxo-1,2-dihydroquinolin-5-yl)ethyl]amino}methyl)-5-methoxyphenyl]-1,2,4-oxadiazol-5-yl}propyl)(methyl)amino]cyclohexylhydroxy(di-2-thienyl)acetate dihydrofluoride] | 2.2 nM | 0.2 nM |
| CN(CCCn1c(=O)oc2cc(CCNC[C@H](O)c3ccc(O)c4[nH]c(=O)ccc34)ccc21)[C@H]1CC[C@H](OC(=O)C(O)(c2cccs2)c2cccs2)CC1 (relative stereo) [Example 19, trans-4-[{3-[6-(2-{[(2R)-2-hydroxy-2-(8-hydroxy-2-oxo-1,2-dihydroquinolin-5-yl)ethyl]amino}ethyl)-2-oxo-1,3-benzoxazol-3(2H)-yl]propyl}(methyl)amino]cyclohexylhydroxy(di-2-thienyl)acetate dihydrofluoride] | 62 nM | 0.8 nM |
| CC(Cc1ccc(OCC(=O)NCCN[C@H]2CC[C@H](OC(=O)C(O)(c3cccs3)c3cccs3)CC2)cc1)NC[C@H](O)c1ccc(O)c2[nH]c(=O)ccc12 (relative stereo) [Example 20] | 3.1 nM | 3.6 nM |
| trans-4-[(3-{3-[4-({[(2R)-2-hydroxy-2-(8-hydroxy-2-oxo-1,2-dihydroquinolin-5-yl)ethyl]amino}methyl)phenyl]-1,2,4-oxadiazol-5-yl}propyl)(methyl)amino]cyclohexylhydroxy(di-2-thienyl)acetate dihydrofluoride [Example 5] | 2.7 nM | 0.4 nM |
| trans-4-[{3-[5-({[(2R)-2-hydroxy-2-(8-hydroxy-2-oxo-1,2-dihydroquinolin-5-yl)ethyl]amino}methyl)-2-oxo-2,3-dihydro-1H-benzimidazol-1-yl]propyl}(methyl)amino]cyclohexylhydroxy(di-2-thienyl)acetate dihydrofluoride [Example 2] | 120 nM | 0.4 nM |
| trans-4-[{3-[6-({[(2R)-2-hydroxy-2-(8-hydroxy-2-oxo-1,2-dihydroquinolin-5-yl)ethyl]amino}methyl)-2-oxo-1,3-benzothiazol-3(2H)-yl]propyl}(methyl)amino]cyclohexylhydroxy(di-2-thienyl)acetate dihydrofluoride [Example 11] | 4.2 nM | 0.5 nM |
